Experimental data as given in patent US10588317B2, “Isoxazoline-substituted benzamides and analogues as insecticides” (priority 2015, dated 2020).

How the values were obtained:
Format in all cases: in vivo
[1] = system: Diabrotica balteata; experiment: Diabrotica balteata (corn root worm), sprayed maize sprouts; conditions: 96 h, application rate 200 ppm, L2 larvae, 4 days after infestation, read-out: effect in at least one of the two categories (mortality or growth inhibition)
How it was run: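 Read-out at 4 days post-infestation: mortality and growth inhibition relative to untreated samples. Test solutions (200 ppm, from DMSO stocks) were sprayed onto agar-held maize sprouts, which after drying received 6–10 L2 larvae per well.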

[2] = system: Plutella xylostella; experiment: Plutella xylostella (diamond back moth), artificial diet; conditions: 120 h, application rate 200 ppm, L2 larvae, 5 days after infestation, read-out: effect in at least one of the two categories (mortality or growth inhibition)
How it was run: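 L2 larvae (10-15 per well) fed on compound-treated, dried artificial diet; test solutions diluted in water from 10'000 ppm DMSO stocks. Readout 5 days post-infestation as mortality or growth inhibition versus untreated diet, with at least 80% effect at 200 ppm as threshold.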

[3] = system: Thrips tabaci; experiment: Thrips tabaci (onion thrips): feeding/contact activity; conditions: 144 h, application rate 200 ppm, Thrips population of mixed ages, 6 days after infestation, read-out: mortality
Method: Sunflower leaf discs were placed on agar in 24-well microtiter plates and sprayed with aqueous test solutions prepared from 10'000 ppm DMSO stock solutions. After drying the leaf discs were infested with a Thrips population of mixed ages. The samples were assessed for mortality 6 days after infestation.

[4] = system: Euschistus heros; experiment: Euschistus heros (neotropical brown stink bug), sprayed soybean leaves; conditions: 120 h, application rate 200 ppm, N2 nymphs, 5 days after infestation, read-out: effect in at least one of the two categories (mortality or growth inhibition)
How it was run: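 Scored 5 days post-infestation versus untreated controls, for both mortality and growth inhibition: N2 nymphs placed on agar-mounted soybean leaves previously sprayed at 200 ppm with aqueous test solutions from DMSO stocks and left to dry.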

[5] = system: Spodoptera littoralis; experiment: Spodoptera littoralis (Egyptian cotton leaf worm), sprayed cotton leaf discs; conditions: foliar, 72 h, application rate 200 ppm, L1 larvae, 3 days after infestation, read-out: control (mortality, anti-feeding effect, growth inhibition)
How it was run: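 Five first-instar larvae placed on dried cotton leaf discs (on agar) previously sprayed with aqueous dilutions of 10'000 ppm DMSO stocks. Scored at 3 days against untreated discs for mortality, feeding inhibition and growth inhibition; any category above untreated counts as control.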

[6] = system: Myzus persicae; experiment: Myzus persicae (green peach aphid): feeding/contact activity; conditions: 144 h, application rate 200 ppm, aphid population of mixed ages, 6 days after infestation, read-out: mortality
Method: Sunflower leaf discs were placed onto agar in a 24-well microtiter plate and sprayed with aqueous test solutions prepared from 10'000 ppm DMSO stock solutions. After drying, the leaf discs were infested with an aphid population of mixed ages. The samples were assessed for mortality 6 days after infestation.

[7] = system: Tetranychus urticae; experiment: Tetranychus urticae (two-spotted spider mite): feeding/contact activity; conditions: 192 h, application rate 200 ppm, mixed population (mobile stages), 8 days after infestation, read-out: mortality
Method: Bean leaf discs on agar in 24-well microtiter plates were sprayed with aqueous test solutions prepared from 10'000 ppm DMSO stock solutions. After drying the leaf discs were infested with a mite population of mixed ages. The samples were assessed for mortality on mixed population (mobile stages) 8 days after infestation.

Cc1cc(C2=NO[C@](c3cc(Cl)c(Cl)c(Cl)c3)(C(F)(F)F)C2)ccc1C(=O)N[C@H]1CON(S(=O)(=O)CCl)C1 [Compound A220, N-[(4R)-2-(chloromethylsulfonyl)-1,2-oxazolidin-4-yl]-2-methyl-4-[(5R)-5-(3,4,5-trichlorophenyl)-5-(trifluoromethyl)-4H-1,2-oxazol-3-yl]benzamide]
≥ 80%: percent effect (mortality or growth inhibition) at 200 ppm [1] | percent effect (mortality or growth inhibition) at 200 ppm [2] | mortality at 200 ppm [3] | percent effect (mortality or growth inhibition) at 200 ppm [4] | mortality at 200 ppm [5] | mortality at 200 ppm [6] | mortality at 200 ppm [7]

Cc1cc(C2=NO[C@@](c3cc(Cl)c(F)c(Cl)c3)(C(F)(F)F)C2)ccc1C(=O)N[C@@H]1CON(S(=O)(=O)C2CC2)C1 [Compound A228, N-[(4S)-2-cyclopropylsulfonyl-1,2-oxazolidin-4-yl]-4-[(5S)-5-(3,5-dichloro-4-fluorophenyl)-5-(trifluoromethyl)-4H-1,2-oxazol-3-yl]-2-methylbenzamide]
≥ 80%: percent effect (mortality or growth inhibition) at 200 ppm [1] | percent effect (mortality or growth inhibition) at 200 ppm [2] | mortality at 200 ppm [3] | percent effect (mortality or growth inhibition) at 200 ppm [4] | mortality at 200 ppm [5] | mortality at 200 ppm [6] | mortality at 200 ppm [7]

Cc1cc(C2=NO[C@](c3cc(Cl)cc(Cl)c3)(C(F)(F)F)C2)ccc1C(=O)N[C@H]1CON(S(=O)(=O)CCl)C1 [Compound A166, N-[(4R)-2-(chloromethylsulfonyl)-1,2-oxazolidin-4-yl]-4-[(5R)-5-(3,5-dichlorophenyl)-5-(trifluoromethyl)-4H-1,2-oxazol-3-yl]-2-methylbenzamide]
≥ 80%: percent effect (mortality or growth inhibition) at 200 ppm [1] | percent effect (mortality or growth inhibition) at 200 ppm [2] | mortality at 200 ppm [3] | percent effect (mortality or growth inhibition) at 200 ppm [4] | mortality at 200 ppm [5] | mortality at 200 ppm [6] | mortality at 200 ppm [7]

CCS(=O)(=O)N1CC(NC(=O)c2ccc(C3=NO[C@@](c4cc(Cl)c(Cl)c(Cl)c4)(C(F)(F)F)C3)cc2Br)CO1 (stereo partly drawn) [Compound A43, 2-bromo-N-(2-ethylsulfonylisoxazolidin-4-yl)-4-[(5S)-5-(3,4,5-trichlorophenyl)-5-(trifluoromethyl)-4H-isoxazol-3-yl]benzamide]
≥ 80%: percent effect (mortality or growth inhibition) at 200 ppm [1] | percent effect (mortality or growth inhibition) at 200 ppm [2] | mortality at 200 ppm [3] | percent effect (mortality or growth inhibition) at 200 ppm [4] | mortality at 200 ppm [5] | mortality at 200 ppm [6] | mortality at 200 ppm [7]

CNS(=O)(=O)N1C[C@@H](NC(=O)c2ccc(C3=NO[C@](c4cc(F)cc(C(F)(F)F)c4)(C(F)(F)F)C3)cc2C)CO1 [Compound A180]
≥ 80%: percent effect (mortality or growth inhibition) at 200 ppm [1] | percent effect (mortality or growth inhibition) at 200 ppm [2] | mortality at 200 ppm [3] | percent effect (mortality or growth inhibition) at 200 ppm [4] | mortality at 200 ppm [5] | mortality at 200 ppm [6] | mortality at 200 ppm [7]

CCNS(=O)(=O)N1C[C@@H](NC(=O)c2ccc(C3=NO[C@@](c4cc(Cl)c(F)c(Cl)c4)(C(F)(F)F)C3)cc2Cl)CO1 [Compound A124, 2-chloro-4-[(5S)-5-(3,5-dichloro-4-fluoro-phenyl)-5-(trifluoromethyl)-4H-isoxazol-3-yl]-N-[(4R)-2-(ethylsulfamoyl)isoxazolidin-4-yl]benzamide]
≥ 80%: percent effect (mortality or growth inhibition) at 200 ppm [1] | percent effect (mortality or growth inhibition) at 200 ppm [2] | mortality at 200 ppm [3] | percent effect (mortality or growth inhibition) at 200 ppm [4] | mortality at 200 ppm [5] | mortality at 200 ppm [6] | mortality at 200 ppm [7]

CCN(C(=O)OC(C)(C)C)S(=O)(=O)N1CC(NC(=O)c2ccc(C3=NO[C@@](c4cc(Cl)c(F)c(Cl)c4)(C(F)(F)F)C3)cc2C)CO1 (stereo partly drawn) [Compound A93, tert-butyl N-[4-[[4-[(5S)-5-(3,5-dichloro-4-fluoro-phenyl)-5-(trifluoromethyl)-4H-isoxazol-3-yl]-2-methyl-benzoyl]amino]isoxazolidin-2-yl]sulfonyl-N-ethyl-carbamate]
≥ 80%: percent effect (mortality or growth inhibition) at 200 ppm [1] | percent effect (mortality or growth inhibition) at 200 ppm [2] | mortality at 200 ppm [3] | percent effect (mortality or growth inhibition) at 200 ppm [4] | mortality at 200 ppm [5] | mortality at 200 ppm [6] | mortality at 200 ppm [7]

Cc1cc(C2=NO[C@@](c3cc(Cl)cc(Cl)c3)(C(F)(F)F)C2)ccc1C(=O)N[C@@H]1CON(S(=O)(=O)CC(=O)O)C1 [Compound A174, 2-[[(4S)-4-[[4-[(5S)-5-(3,5-dichlorophenyl)-5-(trifluoromethyl)-4H-1,2-oxazol-3-yl]-2-methylbenzoyl]amino]-1,2-oxazolidin-2-yl]sulfonyl]acetic acid]
≥ 80%: percent effect (mortality or growth inhibition) at 200 ppm [1] | percent effect (mortality or growth inhibition) at 200 ppm [2] | mortality at 200 ppm [3] | percent effect (mortality or growth inhibition) at 200 ppm [4] | mortality at 200 ppm [5] | mortality at 200 ppm [6] | mortality at 200 ppm [7]

Cc1cc(C2=NO[C@](c3cc(Cl)cc(C(F)(F)F)c3)(C(F)(F)F)C2)ccc1C(=O)N[C@H]1CON(S(=O)(=O)CF)C1 [Compound A218]
≥ 80%: percent effect (mortality or growth inhibition) at 200 ppm [1] | percent effect (mortality or growth inhibition) at 200 ppm [2] | mortality at 200 ppm [3] | percent effect (mortality or growth inhibition) at 200 ppm [4] | mortality at 200 ppm [5] | mortality at 200 ppm [6] | mortality at 200 ppm [7]

CCN(C(C)C)S(=O)(=O)N1CC(NC(=O)c2ccc(C3=NO[C@@](c4cc(Cl)c(Cl)c(Cl)c4)(C(F)(F)F)C3)cc2C)CO1 (stereo partly drawn) [Compound A104]
≥ 80%: percent effect (mortality or growth inhibition) at 200 ppm [1] | percent effect (mortality or growth inhibition) at 200 ppm [2] | mortality at 200 ppm [3] | percent effect (mortality or growth inhibition) at 200 ppm [4] | mortality at 200 ppm [5] | mortality at 200 ppm [6] | mortality at 200 ppm [7]

Cc1cc(C2=NO[C@@](c3cc(Cl)c(F)c(Cl)c3)(C(F)(F)F)C2)ccc1C(=O)N[C@@H]1CON(S(=O)(=O)CC(=O)O)C1 [Compound A200]
≥ 80%: percent effect (mortality or growth inhibition) at 200 ppm [1] | percent effect (mortality or growth inhibition) at 200 ppm [2] | mortality at 200 ppm [3] | percent effect (mortality or growth inhibition) at 200 ppm [4] | mortality at 200 ppm [5] | mortality at 200 ppm [6] | mortality at 200 ppm [7]

Cc1cc(C2=NO[C@@](c3cc(F)cc(C(F)(F)F)c3)(C(F)(F)F)C2)ccc1C(=O)N[C@@H]1CON(S(=O)(=O)N(C)C)C1 [Compound A169]
≥ 80%: percent effect (mortality or growth inhibition) at 200 ppm [1] | percent effect (mortality or growth inhibition) at 200 ppm [2] | mortality at 200 ppm [3] | percent effect (mortality or growth inhibition) at 200 ppm [4] | mortality at 200 ppm [5] | mortality at 200 ppm [6] | mortality at 200 ppm [7]
